In ChEMBL document CHEMBL1201862, “PubChem BioAssay data set” (2004):
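1) Cells in 96-well plates. 2) Compound, 48 h, 5 concentrations. 3) Linear interpolation between surrounding doses. 4) Unreached endpoint = highest concentration. GI50 is the concentration that inhibits growth by half.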 The source made the active and inactive calls. Rule as the data show it: active = GI50 up to about 1.1 µM and inactive = higher.

Experiments:
Experiment in all cases: NCI tumour cell line growth inhibition, 48 h
BT-549 = system: BT-549
CCRF-CEM = system: CCRF-CEM
COLO 205 = system: COLO 205
HCT-116 = system: HCT-116
HL-60 = system: HL-60
Hs-578T = system: Hs-578T
IGROV-1 = system: IGROV-1
M14 = system: M14
MDA-MB-435 = system: MDA-MB-435
MDA-N = system: MDA-N
MOLT-4 = system: MOLT-4
OVCAR-5 = system: OVCAR-5
RXF 393 = system: RXF 393
SF-295 = system: SF-295
SK-MEL-28 = system: SK-MEL-28
SK-MEL-5 = system: SK-MEL-5
SNB-75 = system: SNB-75
SNB-78 = system: SNB-78
SR = system: SR
UACC-62 = system: UACC-62

Measured: GI50

O=[N+]([O-])c1ccccc1S(=O)(=O)c1ccccc1[N+](=O)[O-]
inactive: BT-549 65.9 µM | CCRF-CEM > 100 µM | COLO 205 > 100 µM | HCT-116 > 100 µM | HL-60 > 100 µM | Hs-578T 32.4 µM | IGROV-1 > 84.7 µM | M14 > 100 µM | MDA-MB-435 > 100 µM | MDA-N > 100 µM | MOLT-4 > 100 µM | OVCAR-5 > 10 µM | RXF 393 39.5 µM | SF-295 36.9 µM | SK-MEL-28 > 100 µM | SK-MEL-5 > 56.2 µM | SNB-75 21 µM | SNB-78 16.4 µM | SR > 100 µM | UACC-62 > 100 µM
